Results reported in article PMC5218480 (PLoS ONE, 2017).

Test system: MV-4-11 cells
Test: Gene expression microarray analysis (Affymetrix PrimeView) and GSEA
Assay type: cell-based, human
Set-up: RFU PODN (11730768_x_at) / Fold change /veh PODN (11730768_x_at) / RFU LINC00158 (11744669_a_at) / Fold change /veh LINC00158 (11744669_a_at) / RFU DUSP10 (11751237_a_at) / Fold change /veh DUSP10 (11751237_a_at) / RFU ID3 (11757404_x_at) / Fold change /veh ID3 (11757404_x_at) / RFU PLEKHG5 (11737974_s_at) / Fold change /veh PLEKHG5 (11737974_s_at) / RFU LRRC4B (11730491_at) / Fold change /veh LRRC4B (11730491_at) / RFU GIMAP4 (11747438_a_at) / Fold change /veh GIMAP4 (11747438_a_at) / RFU KRT8 (11758183_x_at) / Fold change /veh KRT8 (11758183_x_at) / RFU CNN1 (11734310_a_at) / Fold change /veh CNN1 (11734310_a_at) / RFU VPS37D (11726825_at) / Fold change /veh VPS37D (11726825_at) / RFU C10orf10 (11716522_x_at) / Fold change /veh C10orf10 (11716522_x_at) / RFU KIR2DL2 /// KIR2DL4 /// KIR2DL5A /// KIR2DL5B /// KIR2DS1 /// KIR2DS2 /// KIR2DS3 /// KIR2DS4 /// KIR3DL3 /// KIR3DL3 /// KIR3DS1 (11738374_at) / Fold change /veh KIR2DL2 /// KIR2DL4 /// KIR2DL5A /// KIR2DL5B /// KIR2DS1 /// KIR2DS2 /// KIR2DS3 /// KIR2DS4 /// KIR3DL3 /// KIR3DL3 /// KIR3DS1 (11738374_at) / RFU C1QL1 (11718748_at) / Fold change /veh C1QL1 (11718748_at) / RFU TMPRSS4 (11747572_a_at) / Fold change /veh TMPRSS4 (11747572_a_at) / RFU HAMP (11756126_x_at) / Fold change /veh HAMP (11756126_x_at) / RFU RNFT2 (11725882_a_at) / Fold change /veh RNFT2 (11725882_a_at) / RFU NR4A2 (11747474_a_at) / Fold change /veh NR4A2 (11747474_a_at) / RFU ABCC12 (11746883_a_at) / Fold change /veh ABCC12 (11746883_a_at) / RFU TMEM136 (11760407_x_at) / Fold change /veh TMEM136 (11760407_x_at) / RFU CLDN22 /// WWC2 (11732394_at) / Fold change /veh CLDN22 /// WWC2 (11732394_at) / RFU HLA-DPB1 (11760878_x_at) / Fold change /veh HLA-DPB1 (11760878_x_at) / RFU SPINT1 (11716480_a_at) / Fold change /veh SPINT1 (11716480_a_at) / RFU GAP43 (11754022_s_at) / Fold change /veh GAP43 (11754022_s_at) / RFU A4GNT (11735810_at) / Fold change /veh A4GNT (11735810_at) / RFU PRB3 (11715151_x_at) / Fold change /veh PRB3 (11715151_x_at) / RFU TUBB4B (11761932_at) / Fold change /veh TUBB4B (11761932_at) / RFU CAPN14 (11732068_a_at) / Fold change /veh CAPN14 (11732068_a_at) / RFU TMCC2 (11721928_a_at) / Fold change /veh TMCC2 (11721928_a_at) / RFU IRGQ (11745062_a_at) / Fold change /veh IRGQ (11745062_a_at) / RFU FAM174B (11720279_a_at) / Fold change /veh FAM174B (11720279_a_at) / RFU TMPRSS4 (11748680_a_at) / Fold change /veh TMPRSS4 (11748680_a_at) / RFU FAM212B (11763350_a_at) / Fold change /veh FAM212B (11763350_a_at) / RFU PLEKHG5 (11743358_a_at) / Fold change /veh PLEKHG5 (11743358_a_at) / RFU ZSCAN30 (11745921_a_at) / Fold change /veh ZSCAN30 (11745921_a_at) / RFU CMKLR1 (11741424_a_at) / Fold change /veh CMKLR1 (11741424_a_at) / RFU LOC101060620 /// MAPK8IP1 (11723275_at) / Fold change /veh LOC101060620 /// MAPK8IP1 (11723275_at) / RFU SPTSSB (11747773_x_at) / Fold change /veh SPTSSB (11747773_x_at) / RFU PRSS12 (11739890_at) / Fold change /veh PRSS12 (11739890_at) / RFU BIN1 (11741810_x_at) / Fold change /veh BIN1 (11741810_x_at) / RFU WNT11 (11732464_a_at) / Fold change /veh WNT11 (11732464_a_at) / RFU C10orf10 (11716521_a_at) / Fold change /veh C10orf10 (11716521_a_at) / RFU C5orf56 (11738089_at) / Fold change /veh C5orf56 (11738089_at) / RFU CYB561 (11721691_x_at) / Fold change /veh CYB561 (11721691_x_at) / RFU ANKRD19P (11752326_a_at) / Fold change /veh ANKRD19P (11752326_a_at) / RFU OR2T12 /// OR2T33 /// OR2T8 (11738714_s_at) / Fold change /veh OR2T12 /// OR2T33 /// OR2T8 (11738714_s_at) / RFU VCAN (11748164_a_at) / Fold change /veh VCAN (11748164_a_at) / RFU JSRP1 (11732532_at) / Fold change /veh JSRP1 (11732532_at) / RFU KRTAP10-11 (11738290_x_at) / Fold change /veh KRTAP10-11 (11738290_x_at) / RFU MYO3A (11730013_a_at) / Fold change /veh MYO3A (11730013_a_at) / RFU EBF3 (11725865_a_at) / Fold change /veh EBF3 (11725865_a_at) / RFU CAMK2N1 (11719241_x_at) / Fold change /veh CAMK2N1 (11719241_x_at) / RFU C5orf56 (11738088_a_at) / Fold change /veh C5orf56 (11738088_a_at) / RFU OLFML3 (11715873_a_at) / Fold change /veh OLFML3 (11715873_a_at) / RFU LOC100653217 /// NTM (11731650_a_at) / Fold change /veh LOC100653217 /// NTM (11731650_a_at) / RFU MAPK11 (11762145_a_at) / Fold change /veh MAPK11 (11762145_a_at) / RFU FIZ1 (11724087_x_at) / Fold change /veh FIZ1 (11724087_x_at) / RFU OASL (11726364_x_at) / Fold change /veh OASL (11726364_x_at) / RFU SOX15 (11748057_x_at) / Fold change /veh SOX15 (11748057_x_at) / RFU CD79A (11719716_a_at) / Fold change /veh CD79A (11719716_a_at) / RFU HIST1H1D (11736915_at) / Fold change /veh HIST1H1D (11736915_at) / RFU CASKIN2 (11723855_a_at) / Fold change /veh CASKIN2 (11723855_a_at) / RFU LOC730098 (11760151_x_at) / Fold change /veh LOC730098 (11760151_x_at) / RFU OR4N2 (11742367_at) / Fold change /veh OR4N2 (11742367_at) / RFU PRRT2 (11749266_a_at) / Fold change /veh PRRT2 (11749266_a_at) / RFU SNX32 (11753110_a_at) / Fold change /veh SNX32 (11753110_a_at) / RFU CDHR5 (11726645_a_at) / Fold change /veh CDHR5 (11726645_a_at) / RFU RCAN1 (11760418_a_at) / Fold change /veh RCAN1 (11760418_a_at) / RFU FAM167A (11723789_a_at) / Fold change /veh FAM167A (11723789_a_at) / RFU FAM26E (11764081_at) / Fold change /veh FAM26E (11764081_at) / RFU ISYNA1 (11749810_s_at) / Fold change /veh ISYNA1 (11749810_s_at) / RFU ACY1 (11761880_at) / Fold change /veh ACY1 (11761880_at) / RFU 11764098_at / Fold change /veh 11764098_at / RFU SAMD14 (11745864_x_at) / Fold change /veh SAMD14 (11745864_x_at) / RFU NPB (11741838_a_at) / Fold change /veh NPB (11741838_a_at) / RFU TMPRSS6 (11731388_a_at) / Fold change /veh TMPRSS6 (11731388_a_at) / RFU KRTAP10-2 (11738614_at) / Fold change /veh KRTAP10-2 (11738614_at) / RFU ARHGAP8 /// PRR5-ARHGAP8 (11727945_x_at) / Fold change /veh ARHGAP8 /// PRR5-ARHGAP8 (11727945_x_at) / RFU KRTAP5-7 /// NADSYN1 (11734609_at) / Fold change /veh KRTAP5-7 /// NADSYN1 (11734609_at) / RFU RASL12 (11751679_a_at) / Fold change /veh RASL12 (11751679_a_at) / RFU CDKN2B (11736163_a_at) / Fold change /veh CDKN2B (11736163_a_at) / RFU PRF1 (11729649_at) / Fold change /veh PRF1 (11729649_at) / RFU, ZNF638 /// ZNF638-IT1 / Fold change vs veh, ZNF638 /// ZNF638-IT1 / RFU, PANK3 / Fold change vs veh, PANK3 / RFU, SH3YL1 / Fold change vs veh, SH3YL1 / RFU, ZEB2 / Fold change vs veh, ZEB2 / RFU, NRIP1 / Fold change vs veh, NRIP1 / RFU, PTTG1IP / Fold change vs veh, PTTG1IP / RFU, CAPN2 / Fold change vs veh, CAPN2 / RFU, MED14 / Fold change vs veh, MED14 / RFU, SNORA58 / Fold change vs veh, SNORA58 / RFU, C1orf63 / Fold change vs veh, C1orf63 / RFU, LRRFIP1 / Fold change vs veh, LRRFIP1 / RFU, NDUFAF7 / Fold change vs veh, NDUFAF7 / RFU, SLC12A2 / Fold change vs veh, SLC12A2 / RFU, IBTK / Fold change vs veh, IBTK / RFU, ESF1 / Fold change vs veh, ESF1 / Fold change vs veh, TMEM50B / RFU, TAOK1 / Fold change vs veh, TAOK1 / RFU, ACBD3 / Fold change vs veh, ACBD3 / RFU, TMA16 / Fold change vs veh, TMA16 / RFU, RWDD3 / Fold change vs veh, RWDD3 / RFU, BCAT1 / Fold change vs veh, BCAT1 / RFU, EDEM3 / Fold change vs veh, EDEM3 / RFU, TMEM33 / Fold change vs veh, TMEM33 / RFU, WDR75 / Fold change vs veh, WDR75 / RFU, AHCTF1 / Fold change vs veh, AHCTF1 / RFU, TFRC / Fold change vs veh, TFRC / RFU, ZDHHC17 / Fold change vs veh, ZDHHC17 / RFU, NOM1 / Fold change vs veh, NOM1 / RFU, ARL8B / Fold change vs veh, ARL8B / RFU, ZBTB11 / Fold change vs veh, ZBTB11 / RFU, TAMM41 / Fold change vs veh, TAMM41 / RFU, KIAA1704 /// LOC100996395 / Fold change vs veh, KIAA1704 /// LOC100996395 / RFU, ING1 / Fold change vs veh, ING1 / RFU, TRMT61B / Fold change vs veh, TRMT61B / RFU, FUBP3 / Fold change vs veh, FUBP3 / RFU, TP53 / Fold change vs veh, TP53 / RFU, TNKS2 / Fold change vs veh, TNKS2 / RFU, ZFP14 / Fold change vs veh, ZFP14 / RFU, ACTR2 / Fold change vs veh, ACTR2 / RFU, PPP3R1 / Fold change vs veh, PPP3R1 / RFU, PIK3R1 / Fold change vs veh, PIK3R1 / RFU, HNRNPA1 / Fold change vs veh, HNRNPA1 / RFU, RNF170 / Fold change vs veh, RNF170 / RFU, ZNF28 / Fold change vs veh, ZNF28 / RFU, RNGTT / Fold change vs veh, RNGTT / RFU, OGT / Fold change vs veh, OGT / RFU, BRD1 / Fold change vs veh, BRD1 / RFU, MARS / Fold change vs veh, MARS / RFU, ZNF655 / Fold change vs veh, ZNF655 / RFU, FAHD1 / Fold change vs veh, FAHD1 / RFU, BDP1 / Fold change vs veh, BDP1 / RFU, LRRCC1 / Fold change vs veh, LRRCC1 / RFU, ARID1A / Fold change vs veh, ARID1A / RFU, ZNF146 / Fold change vs veh, ZNF146 / RFU, ZNF330 / Fold change vs veh, ZNF330 / RFU, GPN3 / Fold change vs veh, GPN3 / RFU, C9orf123 / Fold change vs veh, C9orf123 / RFU, N4BP2L2 / Fold change vs veh, N4BP2L2 / RFU, ARFIP1 / Fold change vs veh, ARFIP1 / RFU, FAM179B / Fold change vs veh, FAM179B / RFU, BCL10 / Fold change vs veh, BCL10 / RFU, UHRF1BP1L / Fold change vs veh, UHRF1BP1L / RFU, BET1 / Fold change vs veh, BET1 / RFU, CNOT2 / Fold change vs veh, CNOT2 / RFU, ZNF268 / Fold change vs veh, ZNF268 / Fold change vs veh, ZNF507 / RFU, DGCR2 / Fold change vs veh, DGCR2 / RFU, WDSUB1 / Fold change vs veh, WDSUB1 / Fold change vs veh, HSP90B1 /// MIR3652 / RFU, ADSS / Fold change vs veh, ADSS / RFU, GK / Fold change vs veh, GK / RFU, ZNF148 / Fold change vs veh, ZNF148 / RFU, TAF9 / Fold change vs veh, TAF9 / RFU, SLC1A5 / Fold change vs veh, SLC1A5 / RFU, SLMO2 / Fold change vs veh, SLMO2 / RFU, ABCC4 / Fold change vs veh, ABCC4 / RFU, LOC101060439 /// RAP1B / Fold change vs veh, LOC101060439 /// RAP1B / RFU, RFX7 / Fold change vs veh, RFX7 / RFU, GTPBP10 / Fold change vs veh, GTPBP10 / RFU, CNEP1R1 / Fold change vs veh, CNEP1R1 / RFU, BIVM-ERCC5 /// ERCC5 / Fold change vs veh, BIVM-ERCC5 /// ERCC5 / RFU, ILF3 / Fold change vs veh, ILF3 / RFU 11762660_at / Fold change /veh 11762660_at / RFU VCAN (11757783_s_at) / Fold change /veh VCAN (11757783_s_at) / RFU DDX43 (11728927_at) / Fold change /veh DDX43 (11728927_at) / RFU KRT8 (11758188_x_at) / Fold change /veh KRT8 (11758188_x_at) / RFU NKD1 (11759106_at) / Fold change /veh NKD1 (11759106_at) / RFU SRD5A1 (11742802_a_at) / Fold change /veh SRD5A1 (11742802_a_at) / RFU TPSAB1 /// TPSB2 (11721975_s_at) / Fold change /veh TPSAB1 /// TPSB2 (11721975_s_at) / RFU GSTM3 (11746129_a_at) / Fold change /veh GSTM3 (11746129_a_at) / RFU IL23R (11737362_x_at) / Fold change /veh IL23R (11737362_x_at) / RFU TMEM51 (11727254_a_at) / Fold change /veh TMEM51 (11727254_a_at) / RFU PIWIL2 (11732686_x_at) / Fold change /veh PIWIL2 (11732686_x_at) / RFU ORM1 (11744905_x_at) / Fold change /veh ORM1 (11744905_x_at) / RFU CCDC152 (11743942_at) / Fold change /veh CCDC152 (11743942_at) / RFU ECM1 (11717891_a_at) / Fold change /veh ECM1 (11717891_a_at) / RFU IL23R (11748794_a_at) / Fold change /veh IL23R (11748794_a_at) / RFU TNFAIP8L3 (11732012_x_at) / Fold change /veh TNFAIP8L3 (11732012_x_at) / RFU MBOAT4 (11741988_at) / Fold change /veh MBOAT4 (11741988_at) / RFU 11764193_at / Fold change /veh 11764193_at / RFU TMEM53 (11763286_at) / Fold change /veh TMEM53 (11763286_at) / RFU MAGEB2 (11727129_at) / Fold change /veh MAGEB2 (11727129_at) / RFU TMEM200A (11744735_a_at) / Fold change /veh TMEM200A (11744735_a_at) / RFU CCDC152 (11751479_a_at) / Fold change /veh CCDC152 (11751479_a_at) / RFU FAM211A (11726209_a_at) / Fold change /veh FAM211A (11726209_a_at) / RFU RGS16 (11746705_a_at) / Fold change /veh RGS16 (11746705_a_at) / RFU VCAN (11755009_s_at) / Fold change /veh VCAN (11755009_s_at) / RFU RHOB (11743442_s_at) / Fold change /veh RHOB (11743442_s_at) / RFU RGS16 (11720943_a_at) / Fold change /veh RGS16 (11720943_a_at) / RFU RGS16 (11720944_at) / Fold change /veh RGS16 (11720944_at) / RFU, VPS4B / Fold change vs veh, VPS4B / RFU, CREB1 / Fold change vs veh, CREB1 / RFU, DNAJC13 / Fold change vs veh, DNAJC13 / RFU, GNAQ / Fold change vs veh, GNAQ / RFU, CDK5R1 / Fold change vs veh, CDK5R1 / RFU, ZRANB3 / Fold change vs veh, ZRANB3 / RFU, CUL4A / Fold change vs veh, CUL4A / RFU, CCNY / Fold change vs veh, CCNY / RFU, UFL1 / Fold change vs veh, UFL1 / RFU, COG3 / Fold change vs veh, COG3 / RFU, DIAPH2 / Fold change vs veh, DIAPH2 / RFU, SKA2 / Fold change vs veh, SKA2 / RFU, AFF3 / Fold change vs veh, AFF3 / RFU, LMF1 / Fold change vs veh, LMF1 / RFU, IPO11 / Fold change vs veh, IPO11 / RFU, DFFB / Fold change vs veh, DFFB / RFU, FOXP1 / Fold change vs veh, FOXP1 / RFU, CARD8 / Fold change vs veh, CARD8 / RFU, STRN3 / Fold change vs veh, STRN3 / RFU, ADK / Fold change vs veh, ADK / RFU, RASSF2 / Fold change vs veh, RASSF2 / RFU, WIPF1 / Fold change vs veh, WIPF1 / RFU, LARP1B / Fold change vs veh, LARP1B / RFU, RASA1 / Fold change vs veh, RASA1 / RFU, RB1 / Fold change vs veh, RB1 / RFU, PPFIA1 / Fold change vs veh, PPFIA1 / RFU, MAT2A / Fold change vs veh, MAT2A / RFU, CCT5 / Fold change vs veh, CCT5 / RFU, WDR92 / Fold change vs veh, WDR92 / RFU, CUX1 / Fold change vs veh, CUX1 / RFU, TTC7A / Fold change vs veh, TTC7A / RFU, TMEM135 / Fold change vs veh, TMEM135 / RFU, DEPTOR / Fold change vs veh, DEPTOR / RFU, CPM / Fold change vs veh, CPM / RFU, DNAJB6 / Fold change vs veh, DNAJB6 / RFU, CACNA2D3 / Fold change vs veh, CACNA2D3 / RFU, DTX4 / Fold change vs veh, DTX4 / RFU, TFCP2 / Fold change vs veh, TFCP2 / RFU, GMCL1 /// GMCL1P1 / Fold change vs veh, GMCL1 /// GMCL1P1 / RFU, AEBP2 / Fold change vs veh, AEBP2 / RFU, SNHG1 /// SNORD22 /// SNORD25 /// SNORD26 /// SNORD27 /// SNORD28 /// SNORD29 /// SNORD31 / Fold change vs veh, SNHG1 /// SNORD22 /// SNORD25 /// SNORD26 /// SNORD27 /// SNORD28 /// SNORD29 /// SNORD31 / Fold change (Aza/veh), C12orf56 (ProbeSet 11735607_a_at) / Fold change (ACY-1035/veh), C12orf56 (ProbeSet 11735607_a_at) / Fold change (Aza/veh), FGFR1OP (ProbeSet 11751329_s_at) / Fold change (ACY-1035/veh), FGFR1OP (ProbeSet 11751329_s_at) / Fold change (Aza/veh), VPS36 (ProbeSet 11739960_a_at) / Fold change (ACY-1035/veh), VPS36 (ProbeSet 11739960_a_at) / RFU SYPL1 (11715823_x_at) / Fold change /veh SYPL1 (11715823_x_at) / RFU IGFBP7 (11715501_s_at) / Fold change /veh IGFBP7 (11715501_s_at) / RFU REEP3 (11722064_at) / Fold change /veh REEP3 (11722064_at) / RFU IGLL1 (11728026_x_at) / Fold change /veh IGLL1 (11728026_x_at): dose or concentration left out as unconfirmed
Settings: ProbeSet 11718701_a_at; LIST B

For Nc1ncn([C@@H]2O[C@H](CO)[C@@H](O)[C@H]2O)c(=O)n1 [azacitidine], the “RFU, ARFIP1” value was 68.44 RFU.
